Source: patent US4782076A, “Substituted 2,3,4,9-tetrahydro-1H-carbazole-1-acetic acid derivatives, composition and use” (American Home Products Corporation, priority 1988, dated 1988)

Experiments:
[1] = tested on: Freund's complete adjuvant-induced hind paw edema in rats; assay: Preventive adjuvant edema in rats (Preventative Adjuvant Edema); format: in vivo, Male Sprague Dawley rats; conditions: 25 mg/kg, p.o., day 0, 1 and 2; edema measured day 3
Description: This test is a primary screen for anti-inflammatory drugs.
Male Sprague Dawley rats (180-200 g) are used. The animals have free access to water but food is withdrawn 18 hours before testing.
Drug Preparations and Administration:
Freund's complete adjuvant is prepared by suspending 5 mg killed and dried Mycobacterium butyricum (Difco) in 1 mL liquid paraffin. The test compounds are dissolved in distilled water or suspended in 0.5% Tween 80 in distilled water according to their solubility. For primary screening all drugs are administered by gastric lavage at the arbitrary dosage of 25 mg/kg, p.o. in a volume of 0.5 mL/100 g body weight to groups of 10 animals.
The method is essentially that described by Wax et al, J. Pharmacol. Exp. Ther., 192, 166-171 (1975). Groups of rats are injected intradermally in the left hind paw with 0.1 mL of Freund's complete adjuvant. […] The injected hind paw volume is measured before the injection of adjuvant and 24 hours after the last drug administration (day 3) by means of a plethysmometer (Buxco Electronics Inc.). […]
The mean edema volume (expressed in mL±SEM) is calculated for each group and the percentage inhibition of inflammation conferred by the drug is calculated: [formula] where c is the mean edema volume for the untreated controls and t is the means edema volume for the drug treated group.

[2] = tested on: phenylbenzoquinone-induced writhing in mice; assay: Phenylbenzoquinone-induced writhing in mice (Phenylquinone Writhing in Mice); format: in vivo, Male Swiss albino mice; conditions: 60 min before PBQ i.p.
Description: A further test used to determine the utility of the compounds of the present invention is designated: DRUG EFFECTS ON PHENYLBENZOQUINONE-INDUCED WRITHING IN MICE
The objective of this test is to determine the ability of test drugs to inhibit the nociceptive (pain) response of mice injected with a chemical irritant. This test is a primary screen for both peripheral and centrally acting analgesic drugs.
Male Swiss albino mice (15-25 g) are used. The animals are fasted for 18 hours prior to use but have free access to water.
(§1) Drug Preparation and Administration:
Drugs are dissolved or suspended according to their solubility in 0.5% Tween 80 in distilled water. They are administered by gastric lavage in a volume of 5 mL/kg. […]
A modification of the method of Siegmund et al, Proc. Soc. […] The number of writhing or abdominal squirming movements made by each mouse during the following 15 minute period is counted. The experiment is repeated with another group of 5 mice and the mean number of writhes per mouse for a group of 10 mice is calculated.
Drug treated and vehicle-treated control groups are compared and the percentage inhibition of writhing conferred by the drug is calculated: [formula] where c=mean number of writhes in the control group, and where t=mean number of writhes in the test drug group.

[3] = tested on: reaction of rats to painful stimulation applied to an inflamed paw; assay: Paw pressure test in the rat; format: in vivo, Male Sprague Dawley rats; conditions: po, 24 hours after Freund's adjuvant, pain threshold 1 hour later, dose which causes analgesia in 50% of the animals
Source text: A still further test used to determine the utility of the compounds of the present invention is designated: PAW PRESSURE TEST IN THE RAT
The objective of this test is to assess the potency of peripheral and central acting drugs in inhibiting the reaction of rats to painful stimulation applied to an inflamed paw.
Male Sprague Dawley rats (180-200 g) are used. The animals are fasted overnight prior to drug administration.
as §1
Freund's Complete Adjuvant (FCA) is prepared by suspending 5 mg killed and dried Mycobacterium butyricum (Difco) in 1 mL liquid paraffin. The test compounds are dissolved or susended in 0.5% Tween 80 in distilled water according to their solubility. They are administered by gastric gavage in a volume of 0.5 mL/100 g body weight to groups of 10 animals.
Ten rats are used per group. The method is essentially that described by Randall et al, Arch. Int. Pharmacodyn. […] The force is continuously monitored by a pointer moving along a linear scale and is measured in grams. […] The pain threshold is determined 1 hour later in the inflamed paw and the normal paw of the treated and control groups. […]
Each animal which has a reading 1.5 times greater than the mean reading of the control-group will be considered as responsive to treatment. The number of animals showing an analgesic effect is then determined in each group. […]

Row | Compound | % Inhibition [1] [%] | ED50 ([2]; Mus musculus, po) [mg/kg] | ED50 [3] [mg/kg] | % Inhibition ([2]; 25 mg/kg, p.o.) [%]
1 | C#CCC1CCC(CC)(CC(=O)O)c2[nH]c3c(CC)cccc3c21 (single isomer, unassigned; isomer a) [Example 1, 1,8-Diethyl-2,3,4,9-tetrahydro-4-(2-propynyl)-1H-carbazole-1-acetic Acid Isomer A] | 51 | 6.6 | 0.38 | 
2 | C#CCC1CCC(CC)(CC(=O)O)c2[nH]c3c(CC)cccc3c21 (single isomer, unassigned; isomer b) [Example 2, 1,8-Diethyl-2,3,4,9-tetrahydro-4-(2-propynyl)-1H-carbazole-1-acetic Acid Isomer B] | 36 |  |  | 8
